The numbers were not newly measured in patent US11052155B2, “Conjugates of CC-1065 analogs and bifunctional linkers” (priority 2010, dated 2021), which cites them from elsewhere.

The conditions of this data set: in vivo.

Take `COc1c(O)c2c(c3cc(C(=O)N4CCc5c4c(O)c(OC)c4[nH]c(C(=O)N6CC7CC78C6=CC(=O)c6[nH]cc(C)c68)cc54)[nH]c13)CCN2C(N)=O` (stereo not shown) [CC-1065]: the hepatotoxicity entry is listed as “serious delayed hepatotoxicity”.
